Measurements taken from ChEMBL document CHEMBL5291721, “A preclinical secondary pharmacology resource illuminates target-adverse drug reaction associations of marketed drugs” (Nat Commun, 2023).

Tests used:
[1] = target: T1, B2 bradykinin receptor (Homo sapiens, UniProt P30411)
T1 sequence (P30411 whole entry): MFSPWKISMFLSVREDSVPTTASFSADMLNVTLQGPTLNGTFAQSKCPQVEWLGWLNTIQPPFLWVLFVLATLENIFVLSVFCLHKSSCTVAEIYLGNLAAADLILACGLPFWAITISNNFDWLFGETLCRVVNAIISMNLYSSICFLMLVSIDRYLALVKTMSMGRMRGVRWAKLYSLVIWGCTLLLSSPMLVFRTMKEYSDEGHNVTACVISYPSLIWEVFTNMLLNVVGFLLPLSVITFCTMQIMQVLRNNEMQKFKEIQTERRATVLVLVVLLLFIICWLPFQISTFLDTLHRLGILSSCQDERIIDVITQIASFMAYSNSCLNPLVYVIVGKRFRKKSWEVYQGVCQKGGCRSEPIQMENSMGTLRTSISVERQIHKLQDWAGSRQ

[2] = target: Histamine H2 receptor (Homo sapiens, UniProt P25021); format: functional, cell-based
Sequence of Histamine H2 receptor (P25021 whole entry): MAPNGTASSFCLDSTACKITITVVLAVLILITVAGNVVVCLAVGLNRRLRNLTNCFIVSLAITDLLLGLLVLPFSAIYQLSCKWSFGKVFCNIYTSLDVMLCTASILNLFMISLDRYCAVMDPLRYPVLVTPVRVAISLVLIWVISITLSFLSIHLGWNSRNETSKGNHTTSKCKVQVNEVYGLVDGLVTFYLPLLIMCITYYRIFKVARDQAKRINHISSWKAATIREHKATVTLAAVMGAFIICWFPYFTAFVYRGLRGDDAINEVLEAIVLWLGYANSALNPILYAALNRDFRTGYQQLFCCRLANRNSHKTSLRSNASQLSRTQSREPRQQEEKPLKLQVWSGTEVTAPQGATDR

[3] = target: Growth hormone secretagogue receptor type 1 (Homo sapiens, UniProt Q92847)
Sequence of Growth hormone secretagogue receptor type 1 (Q92847 whole entry): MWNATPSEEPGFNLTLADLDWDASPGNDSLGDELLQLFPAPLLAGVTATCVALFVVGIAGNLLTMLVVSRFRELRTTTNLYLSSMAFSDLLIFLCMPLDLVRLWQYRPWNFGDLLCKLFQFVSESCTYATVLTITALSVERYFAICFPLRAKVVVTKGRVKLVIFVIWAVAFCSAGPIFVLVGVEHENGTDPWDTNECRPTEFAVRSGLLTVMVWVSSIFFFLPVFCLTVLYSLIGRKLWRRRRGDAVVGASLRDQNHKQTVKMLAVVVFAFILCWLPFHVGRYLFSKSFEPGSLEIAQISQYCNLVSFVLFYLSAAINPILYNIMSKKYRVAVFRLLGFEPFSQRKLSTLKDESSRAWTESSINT

[4] = target: Sodium-dependent noradrenaline transporter (Homo sapiens, UniProt P23975)
Sequence of Sodium-dependent noradrenaline transporter (P23975 whole entry): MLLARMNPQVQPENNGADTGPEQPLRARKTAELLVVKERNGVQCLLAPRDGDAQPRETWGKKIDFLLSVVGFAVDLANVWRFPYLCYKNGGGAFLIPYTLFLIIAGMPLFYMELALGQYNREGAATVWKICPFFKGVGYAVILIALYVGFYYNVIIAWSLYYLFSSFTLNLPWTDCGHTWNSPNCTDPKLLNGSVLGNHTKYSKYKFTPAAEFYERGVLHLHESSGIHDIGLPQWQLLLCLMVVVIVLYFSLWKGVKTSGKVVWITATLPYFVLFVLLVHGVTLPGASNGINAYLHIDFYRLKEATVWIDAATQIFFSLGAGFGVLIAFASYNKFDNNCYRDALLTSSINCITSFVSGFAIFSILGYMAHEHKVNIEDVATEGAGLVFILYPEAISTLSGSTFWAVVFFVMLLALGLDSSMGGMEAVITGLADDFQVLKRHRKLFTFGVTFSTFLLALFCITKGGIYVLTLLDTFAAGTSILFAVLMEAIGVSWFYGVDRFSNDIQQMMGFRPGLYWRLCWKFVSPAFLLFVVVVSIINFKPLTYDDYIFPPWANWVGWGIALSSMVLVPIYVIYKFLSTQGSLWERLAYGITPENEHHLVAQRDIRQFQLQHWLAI

[5] = target: T2, Alpha-1A adrenergic receptor (Homo sapiens, UniProt P35348); format: functional, cell-based
T2 sequence (P35348 whole entry): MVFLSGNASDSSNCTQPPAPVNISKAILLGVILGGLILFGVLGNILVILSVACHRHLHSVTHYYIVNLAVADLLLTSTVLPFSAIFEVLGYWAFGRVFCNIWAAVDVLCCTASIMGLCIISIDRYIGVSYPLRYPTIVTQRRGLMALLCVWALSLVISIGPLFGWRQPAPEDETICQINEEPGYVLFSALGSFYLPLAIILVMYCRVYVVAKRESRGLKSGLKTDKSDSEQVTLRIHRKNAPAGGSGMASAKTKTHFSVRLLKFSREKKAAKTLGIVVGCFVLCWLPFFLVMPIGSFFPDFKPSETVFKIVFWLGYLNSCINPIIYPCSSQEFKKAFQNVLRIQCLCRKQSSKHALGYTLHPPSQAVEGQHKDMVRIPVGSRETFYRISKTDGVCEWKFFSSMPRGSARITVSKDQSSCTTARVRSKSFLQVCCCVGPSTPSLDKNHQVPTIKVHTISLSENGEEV

[6] = target: Sodium-dependent dopamine transporter (Homo sapiens, UniProt Q01959)
Sequence of Sodium-dependent dopamine transporter (Q01959 whole entry): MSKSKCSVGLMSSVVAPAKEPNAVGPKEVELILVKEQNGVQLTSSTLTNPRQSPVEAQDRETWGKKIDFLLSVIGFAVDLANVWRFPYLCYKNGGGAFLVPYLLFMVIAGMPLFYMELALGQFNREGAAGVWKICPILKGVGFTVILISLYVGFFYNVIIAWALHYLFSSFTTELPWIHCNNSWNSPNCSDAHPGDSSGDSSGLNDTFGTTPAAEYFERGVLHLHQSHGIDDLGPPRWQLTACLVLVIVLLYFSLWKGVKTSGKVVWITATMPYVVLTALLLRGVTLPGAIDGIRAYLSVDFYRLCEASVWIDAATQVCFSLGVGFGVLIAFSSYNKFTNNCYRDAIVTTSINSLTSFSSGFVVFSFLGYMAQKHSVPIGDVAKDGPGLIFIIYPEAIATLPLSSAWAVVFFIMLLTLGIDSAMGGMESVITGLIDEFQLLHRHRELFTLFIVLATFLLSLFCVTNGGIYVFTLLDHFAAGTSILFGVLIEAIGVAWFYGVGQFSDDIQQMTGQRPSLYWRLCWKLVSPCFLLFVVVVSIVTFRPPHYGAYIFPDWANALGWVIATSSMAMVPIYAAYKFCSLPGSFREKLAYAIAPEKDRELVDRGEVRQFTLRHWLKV

[7] = target: T3, 5-hydroxytryptamine receptor 2C (Homo sapiens, UniProt P28335)
T3 sequence (P28335 whole entry): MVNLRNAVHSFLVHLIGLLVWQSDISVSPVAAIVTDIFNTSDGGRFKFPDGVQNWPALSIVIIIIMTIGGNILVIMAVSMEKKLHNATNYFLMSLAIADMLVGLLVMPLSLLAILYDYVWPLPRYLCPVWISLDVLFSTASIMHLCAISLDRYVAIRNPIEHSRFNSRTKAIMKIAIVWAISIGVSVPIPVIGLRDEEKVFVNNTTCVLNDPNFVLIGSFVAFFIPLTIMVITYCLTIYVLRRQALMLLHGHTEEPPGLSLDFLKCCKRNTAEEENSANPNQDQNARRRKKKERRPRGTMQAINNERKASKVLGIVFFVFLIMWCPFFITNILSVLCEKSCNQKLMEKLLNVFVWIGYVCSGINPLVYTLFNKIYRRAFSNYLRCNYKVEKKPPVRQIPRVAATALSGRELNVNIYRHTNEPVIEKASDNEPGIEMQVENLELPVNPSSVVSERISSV

[8] = target: T4, 5-hydroxytryptamine receptor 3A (Homo sapiens, UniProt P46098); format: functional
T4 sequence (P46098 whole entry): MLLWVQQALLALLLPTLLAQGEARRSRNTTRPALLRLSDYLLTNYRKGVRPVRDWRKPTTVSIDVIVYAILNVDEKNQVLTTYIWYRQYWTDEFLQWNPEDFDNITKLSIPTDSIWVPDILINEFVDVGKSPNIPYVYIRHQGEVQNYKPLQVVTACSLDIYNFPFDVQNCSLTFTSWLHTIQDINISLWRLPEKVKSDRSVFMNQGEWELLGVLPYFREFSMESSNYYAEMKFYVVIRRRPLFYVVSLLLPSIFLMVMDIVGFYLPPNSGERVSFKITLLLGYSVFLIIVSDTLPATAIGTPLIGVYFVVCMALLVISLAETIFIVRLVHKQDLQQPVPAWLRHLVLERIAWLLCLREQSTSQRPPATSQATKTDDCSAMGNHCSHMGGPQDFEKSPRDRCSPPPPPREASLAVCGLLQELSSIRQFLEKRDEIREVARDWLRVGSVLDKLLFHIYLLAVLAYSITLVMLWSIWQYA

[9] = target: 3',5'-cyclic-AMP phosphodiesterase 4D (Homo sapiens, UniProt Q08499); format: functional
Sequence of 3',5'-cyclic-AMP phosphodiesterase 4D (Q08499 whole entry): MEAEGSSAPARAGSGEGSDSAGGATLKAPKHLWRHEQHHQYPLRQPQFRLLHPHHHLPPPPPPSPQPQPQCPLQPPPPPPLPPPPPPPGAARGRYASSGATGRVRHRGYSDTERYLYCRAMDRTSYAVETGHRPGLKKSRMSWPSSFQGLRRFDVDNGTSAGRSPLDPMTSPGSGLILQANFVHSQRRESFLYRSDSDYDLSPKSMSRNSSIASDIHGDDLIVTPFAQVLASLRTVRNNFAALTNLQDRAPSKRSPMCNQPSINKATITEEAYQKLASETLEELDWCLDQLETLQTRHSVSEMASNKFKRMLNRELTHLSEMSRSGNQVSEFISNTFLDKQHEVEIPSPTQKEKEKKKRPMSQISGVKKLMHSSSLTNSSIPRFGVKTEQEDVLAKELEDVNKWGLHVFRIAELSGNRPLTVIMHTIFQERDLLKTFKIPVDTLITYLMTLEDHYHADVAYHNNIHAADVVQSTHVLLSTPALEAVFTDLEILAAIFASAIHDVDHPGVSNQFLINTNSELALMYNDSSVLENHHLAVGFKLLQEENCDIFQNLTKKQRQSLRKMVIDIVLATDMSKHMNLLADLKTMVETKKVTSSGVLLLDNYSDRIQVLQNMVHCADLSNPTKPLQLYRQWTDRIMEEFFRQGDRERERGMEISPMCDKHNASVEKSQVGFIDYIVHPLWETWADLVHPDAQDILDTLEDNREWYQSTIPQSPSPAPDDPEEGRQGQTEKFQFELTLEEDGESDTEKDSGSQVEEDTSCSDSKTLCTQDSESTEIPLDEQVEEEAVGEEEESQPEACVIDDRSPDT

[10] = target: T5, Gastrin/cholecystokinin type B receptor (Homo sapiens, UniProt P32239)
T5 sequence (P32239 whole entry): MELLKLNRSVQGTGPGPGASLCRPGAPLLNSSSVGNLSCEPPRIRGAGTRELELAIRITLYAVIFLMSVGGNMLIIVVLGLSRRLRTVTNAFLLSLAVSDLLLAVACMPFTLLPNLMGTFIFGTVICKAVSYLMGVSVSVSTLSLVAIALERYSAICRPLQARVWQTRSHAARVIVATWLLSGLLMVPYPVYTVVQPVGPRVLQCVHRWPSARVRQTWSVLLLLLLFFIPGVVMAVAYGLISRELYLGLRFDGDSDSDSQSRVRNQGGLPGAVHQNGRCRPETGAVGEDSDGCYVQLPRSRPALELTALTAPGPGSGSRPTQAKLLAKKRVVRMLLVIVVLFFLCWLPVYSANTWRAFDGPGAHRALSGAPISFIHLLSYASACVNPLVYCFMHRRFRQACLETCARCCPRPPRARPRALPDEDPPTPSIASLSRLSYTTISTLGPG
Note: assay procedure not described here.

SMILES	AC50 [1]	AC50 [2]	AC50 [3]	AC50 [4]	AC50 [5]	AC50 [6]	AC50 [7]	AC50 [8]	AC50 [9]	AC50 [10]
N[C@H](Cc1cc(I)c(Oc2cc(I)c(O)c(I)c2)c(I)c1)C(=O)O [DEXTROTHYROXINE]	> 30 µM	> 10 µM	> 30 µM	> 30 µM	> 30 µM	> 30 µM	> 30 µM	> 30 µM	0.26 µM	> 30 µM
Nc1nc(F)nc2c1ncn2[C@@H]1O[C@H](COP(=O)(O)O)[C@@H](O)[C@@H]1O [FLUDARABINE PHOSPHATE]	> 30 µM	> 30 µM	> 30 µM	> 30 µM	> 30 µM	> 30 µM	> 30 µM	> 30 µM	> 30 µM	> 30 µM
N#Cc1ccccc1-c1cc(-c2ccccn2)cn(-c2ccccc2)c1=O	> 30 µM	> 30 µM	> 30 µM	> 30 µM	> 30 µM	> 30 µM	> 30 µM	> 30 µM	13 µM	> 30 µM
CCOC(=O)Nc1ccc2c(c1)N(C(=O)CCN1CCOCC1)c1ccccc1S2 [MORICIZINE]	> 30 µM	> 30 µM	> 30 µM	> 30 µM	> 30 µM	> 30 µM	> 30 µM	> 30 µM	0.77 µM	> 30 µM
N#C[C@@H]1CCCN1C(=O)CNC12CC3CC(CC(O)(C3)C1)C2 [VILDAGLIPTIN]	> 30 µM	> 30 µM	> 30 µM	> 30 µM	> 30 µM	> 30 µM	> 30 µM	> 30 µM	> 30 µM	> 30 µM
COc1c(O[C@@H]2O[C@H](CO)[C@@H](O)[C@H](O)[C@H]2O)cc2c(c1OC)-c1ccc(SC)c(=O)cc1[C@@H](NC(C)=O)CC2 [THIOCOLCHICOSIDE]	> 30 µM	> 30 µM	> 30 µM	> 30 µM	> 30 µM	> 30 µM	> 30 µM	> 30 µM	> 30 µM	> 30 µM
CCCCC1(CC)C(=O)NC(=O)NC1=O [BUTETHAL]	> 30 µM	> 30 µM	> 30 µM	> 30 µM	> 30 µM	> 30 µM	> 30 µM	> 30 µM	> 30 µM	> 30 µM
Nc1ccn([C@@H]2O[C@H](CO)[C@@H](O)C2(F)F)c(=O)n1 [GEMCITABINE]	> 30 µM	> 10 µM	> 30 µM	> 30 µM	> 30 µM	> 30 µM	> 30 µM	> 30 µM	16 µM	> 30 µM
CCC(C)(Oc1ccc(C2(c3ccc(OC(C)(CC)C(=O)O)cc3)CCCCC2)cc1)C(=O)O (stereo not given) [CLINOFIBRATE]	> 30 µM	> 30 µM	> 30 µM	> 30 µM	> 30 µM	> 30 µM	> 30 µM	> 30 µM	> 30 µM	> 30 µM
COc1cc2c(Nc3ccc(Br)cc3F)ncnc2cc1OCC1CCN(C)CC1 [VANDETANIB]	> 10 µM	> 30 µM	26 µM	> 30 µM	> 30 µM	14 µM	> 30 µM	> 30 µM	> 30 µM	> 10 µM
Cc1ccc(NC(=O)C2(c3ccc4c(c3)OC(F)(F)O4)CC2)nc1-c1cccc(C(=O)O)c1 [LUMACAFTOR]	> 30 µM	> 30 µM	> 30 µM	> 30 µM	> 30 µM	> 30 µM	> 30 µM	> 30 µM	15 µM	> 10 µM
O=C(O)c1ccccc1OP(=O)(O)O [FOSFOSAL]	> 30 µM	> 30 µM	> 30 µM	> 30 µM	> 30 µM	> 30 µM	> 30 µM	> 30 µM	> 30 µM	> 30 µM
CCCNC(C)C(=O)Nc1ccccc1C (stereo not given) [PRILOCAINE]	> 30 µM	> 30 µM	> 30 µM	> 30 µM	> 30 µM	> 30 µM	> 30 µM	> 30 µM	> 30 µM	> 30 µM
O=C1Nc2ccc(Cl)cc2C(c2ccccc2)=NC1O (stereo not given) [OXAZEPAM]	> 30 µM	> 10 µM	> 30 µM	> 10 µM	> 30 µM	> 10 µM	> 30 µM	> 10 µM	> 10 µM	> 30 µM
COCCOC(=O)C1=C(C)NC(C)=C(C(=O)OC/C=C/c2ccccc2)C1c1cccc([N+](=O)[O-])c1 (stereo not given) [CILNIDIPINE]	> 30 µM	> 30 µM	> 30 µM	> 30 µM	> 30 µM	> 30 µM	> 30 µM	> 30 µM	8.2 µM	> 30 µM
CCN(CC)C(=O)C1CN2CCc3cc(OC)c(OC)cc3C2CC1OC(C)=O (stereo not given) [BENZQUINAMIDE]	> 30 µM	> 30 µM	> 30 µM	> 30 µM	> 30 µM	> 30 µM	17 µM	> 30 µM	> 30 µM	> 30 µM
Nc1ccc(C(=O)O)c(O)c1 [AMINOSALICYLIC ACID]	> 30 µM	> 30 µM	> 30 µM	> 30 µM	> 30 µM	> 30 µM	> 30 µM	> 30 µM	> 30 µM	> 30 µM
CO[C@@]1(NC(=O)Cc2cccs2)C(=O)N2C(C(=O)O)=C(COC(N)=O)CS[C@@H]21 [CEFOXITIN]	> 30 µM	> 30 µM	> 30 µM	> 30 µM	> 30 µM	> 30 µM	> 30 µM	> 30 µM	> 30 µM	> 30 µM
